According to US5753648A, “Tricyclic benzazepine vasopressin antagonists” (American Cyanamid Company, priority 1996, dated 1998):

Columns and labels:
[1] = biological target: T1, Vasopressin V1 receptor subtype in Human Platelet Membranes (Homo sapiens, UniProt P37288); experiment: Binding to Vasopressin V1 receptor subtype in Human Platelet Membranes; conditions: * V1 receptor subtype in human platelet
T1 construct: Frozen platelet rich plasma (PRP), received from the Hudson Valley Blood Services, are thawed to room temperature; tissue Hudson Valley Blood Services; host or cells: human platelets (platelet rich plasma)
T1 sequence (P37288 whole entry): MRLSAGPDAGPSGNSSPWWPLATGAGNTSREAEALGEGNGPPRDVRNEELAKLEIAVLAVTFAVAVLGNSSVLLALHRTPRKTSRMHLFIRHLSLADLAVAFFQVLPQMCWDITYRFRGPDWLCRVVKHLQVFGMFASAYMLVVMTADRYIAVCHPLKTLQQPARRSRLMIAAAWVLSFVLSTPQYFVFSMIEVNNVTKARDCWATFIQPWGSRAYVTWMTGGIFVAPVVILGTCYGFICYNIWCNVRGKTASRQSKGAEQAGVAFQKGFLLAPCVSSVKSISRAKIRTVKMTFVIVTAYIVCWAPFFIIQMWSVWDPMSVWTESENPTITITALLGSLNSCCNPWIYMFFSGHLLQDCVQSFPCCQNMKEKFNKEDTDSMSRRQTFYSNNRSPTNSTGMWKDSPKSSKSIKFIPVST
Experimental: Radioligand Binding Experiments with Human Platelet Membranes
Platelet Source: Hudson Valley Blood Services,
Westchester Medical Center, Valhalla, N.Y.
Platelet Membrane Preparation
Frozen platelet rich plasma (PRP), received from the Hudson Valley Blood Services, are thawed to room temperature. The tubes containing the PRP are centrifuged at 16,000×g for 10 min. at 4° C. and the supernatant fluid discarded. The platelets resuspended in an equal volume of 50.0 mM Tris.HCl, pH 7.5 containing 120 mM NaCl and 20.0 mM EDTA. The suspension is recentrifuged at 16,000×g for 10 min. This washing step is repeated one more time. The wash discarded and the lysed pellets homogenized in low ionic strength buffer of Tris.HCl, 5.0 mM, pH 7.5 containing 5.0 mM EDTA. The homogenate is centrifuged at 39,000×g for 10 min. The resulting pellet is resuspended in Tris.HCl buffer, 70.0 mM, pH 7.5 and recentrifuged at 39,000×g for 10 min. The final pellet is resuspended in 50.0 mM Tris.HCl buffer pH 7.4 containing 120 mM NaCl and 5.0 mM KCl to give 1.0-2.0 mg protein per ml of suspension.
Binding to Vasopressin V1 receptor subtype in Human Platelet Membranes
In wells of 96 well format microtiter plate, add 100 μl of 50.0 mM Tris.HCl buffer containing 0.2% BSA and a mixture of protease inhibitors (aprotinin, leupeptin etc.). Then add 20 μl of [^3 H]Ligand (Manning or Arg^8 Vasopressin), to give final concentrations ranging from 0.01 to 10.0 nM. Initiate the binding by adding 80.0 μl of platelet suspension (approx. 100 μg protein). Mix all reagents by pipetting the mixture up and down a few times. Non specific binding is measured in the presence of 1.0 μM of unlabeled ligand (Manning or Arg^8 Vasopressin). Let the mixture stand undisturbed at room temperature for ninety (90) min. Upon this time, rapidly filter off the incubate under vacuum suction over GF/B filters, using a Brandel® Harvester. Determine the radioactivity caught on the filter disks by the addition of liquid scintillant and counting in a liquid scintillator.

[2] = biological target: T2, Human V2 Vasopressin Receptor (Homo sapiens, UniProt P30518); experiment: Binding to Membranes of Mouse Fibroblast Cell Line (LV-2) Transfected with the cDNA Expressing the Human V2 Vasopressin Receptor; conditions: ** LV-2 cells transfected with human V2 receptor cDNA; read-out: V2 IC50 (**human V2 receptor)
T2 construct: expressed in transfected cells; host or cells: mouse fibroblast cell line LV-2
T2 sequence (P30518 whole entry): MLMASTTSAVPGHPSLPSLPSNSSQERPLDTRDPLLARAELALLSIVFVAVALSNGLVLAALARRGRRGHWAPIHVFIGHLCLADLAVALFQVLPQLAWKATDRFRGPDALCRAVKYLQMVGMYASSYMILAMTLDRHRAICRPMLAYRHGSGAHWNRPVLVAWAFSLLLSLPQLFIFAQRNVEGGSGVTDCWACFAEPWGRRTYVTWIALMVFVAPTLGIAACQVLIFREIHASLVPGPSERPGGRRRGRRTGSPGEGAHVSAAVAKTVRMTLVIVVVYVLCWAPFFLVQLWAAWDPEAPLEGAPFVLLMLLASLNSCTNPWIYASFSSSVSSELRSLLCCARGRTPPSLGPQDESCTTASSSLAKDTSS
Experimental: Binding to Membranes of Mouse Fibroblast Cell Line (LV-2) Transfected with the cDNA Expressing the Human V2 Vasopressin Receptor Membrane Preparation
Flasks of 175 ml capacity, containing attached cells grown to confluence, are cleared of culture medium by aspiration. The flasks containing the attached cells are rinsed with 2×5 ml of phosphate buffered saline (PBS) and the liquid aspirated off each time. Finally, 5 ml of an enzyme free dissociation Hank's based solution (Specialty Media, Inc., Lafayette, N.J.) is added and the flasks are left undisturbed for 2 min. The content of all flasks is poured into a centrifuge tube and the cells pelleted at 300×g for 15 min. The Hank's based solution is aspirated off and the cells homogenized with a polytron at setting #6 for 10 sec in 10.0 mM Tris.HCl buffer, pH 7.4 containing 0.25M sucrose and 1.0 mM EDTA. The homogenate is centrifuged at 1500×g for 10 min to remove ghost membranes. The supernatant fluid is centrifuged at 100,000×g for 60 min to pellet the receptor protein. Upon completion, the pellet is resuspended in a small volume of 50.0 mM Tris.HCl buffer, pH 7.4. The protein content is determined by the Lowry method and the receptor membranes are suspended in 50.0 mM Tris.HCl buffer containing 0.1 mM phenylmethylsulfonylfluoride (PMSF) and 0.2% bovine serum albumin (BSA) to give 2.5 mg receptor protein per ml of suspension.
For binding experiments, the following is added in μl volume to wells of a 96 well format of a microtiter plate: 100.0 μl of 100.0 mM Tris.HCl buffer containing 0.2% heat inactivated BSA, 10.0 mM MgCl2 and a mixture of protease inhibitors: leupeptin, 1.0 mg %; aprotinin, 1.0 mg %; 1,10-phenanthroline, 2.0 mg %; trypsin inhibitor, 10.0 mg % and 0.1 mM PMSF, 20.0 μl of [^3 H] Arginine^8, vasopressin (S.A. 75.0 Ci/mmole) at 0.8 nM and the reaction initiated by the addition of 80.0 μl of tissue membranes (200.0 μg tissue protein). The plates are left undisturbed on the bench top for 120 min to reach equilibrium. Non specific binding is assessed in the presence of 1.0 μm of unlabeled ligand, added in 20 μl volume. For test compounds, these are solubilized in 50% dimethylsulfoxide (DMSO) and added in 20.0 μl volume to a final incubation volume of 200 μl. Upon completion of binding, the content of each well is filtered off, using a Brandel® cell Harvester (Gaithersburg, Md.). The radioactivity trapped on the filter disk by the ligand-receptor complex is assessed by liquid scintillation counting in a Packard LS Counter, with an efficiency of 65% for tritium. The data are analyzed for IC50 values by the LUNDON-2 program for competition (LUNDON SOFTWARE, Ohio).

- IC50 [1]: 20 nM
- IC50 [2]: 5 nM
SMILES: Cc1ccc(F)cc1C(=O)Nc1ccc(C(=O)N2Cc3cccn3Cc3ccccc32)cn1 [Example 1, N-[5-(5H-Pyrrolo[2,1-c][1,4]benzodiazetin-10(11H)-ylcarbonyl)-2-pyridinyl]-5-fluoro-2-methylbenzamide]
